Earlier results on 14 compounds are cited in paper PMC7904743, “WIDOCK: a reactive docking protocol for virtual screening of covalent inhibitors” (Journal of Computer-Aided Molecular Design, 2021).

For data set [1] the following is noted: thiol reactivity, cited from earlier work.
Data set [2] concerns NUDT7. As to conditions: protein labeling at 200 μM; experimental actives if % labeling higher than 50%; cited from earlier work.
Data set [3] deals with OTUB2. Conditions: experimental actives if % labeling higher than 50%; cited from earlier work.
Where [4] appears, read: natural log of average rate constant k.
Where [5] appears, read: natural logarithm of average rate constant.

Read-outs that look alike come from different tables or passages of the source.

With `CS(=O)(=O)c1ccc(NC(=O)CCl)cc1` [PCM-0102335, CS(=O)(=O)c1ccc(NC(=O)CCl)cc1], the “ln(avg k)” value in data set [1] (setting [4]) and in data set [1] (setting [5]) was -15.005 each time. For the same compound, the NUDT7 % labeling in data set [2] is given as 6%. Besides, in data set [3], the OTUB2 % labeling was 30%.
Consider `O=C(CCl)Nc1ccnn1C1CCCC1` [PCM-0102336, O=C(CCl)Nc1ccnn1C1CCCC1], for which the “ln(avg k)” value in data set [1] (setting [4]) and in data set [1] (setting [5]) was -15.629 in each case. The NUDT7 % labeling in data set [2] is recorded as 0%. Besides, the OTUB2 % labeling in data set [3] was 19%.
Consider `Cc1oc(NC(=O)CCl)c(C#N)c1C` [PCM-0102337, Cc1oc(NC(=O)CCl)c(C#N)c1C], for which the “ln(avg k)” value in data set [1] (setting [4]) and in data set [1] (setting [5]) was -15.944 each time. Moreover, in data set [2], the NUDT7 % labeling was 0%. For the same compound, the OTUB2 % labeling in data set [3] is 45%.
With `Cc1ccc(NC(=O)CCl)cc1C` [PCM-0102339, Cc1ccc(NC(=O)CCl)cc1C], the “ln(avg k)” value in data set [1] (setting [4]) and in data set [1] (setting [5]) was -15.536 each time. Besides, the NUDT7 % labeling in data set [2] was 18%. Moreover, the OTUB2 % labeling in data set [3] is 82%.
`Cc1cccc(CN2CCN(C(=O)CCl)CC2)c1` [PCM-0102340, Cc1cccc(CN2CCN(C(=O)CCl)CC2)c1]: the “ln(avg k)” value in data set [1] (setting [4]) and in data set [1] (setting [5]) was -15.593 throughout. For the same compound, the NUDT7 % labeling in data set [2] was 0%. Besides, in data set [3], the OTUB2 % labeling is reported as 17%.
Consider `N#CC(c1ccc(F)cc1)N1CCN(C(=O)CCl)CC1` (centres unmarked) [PCM-0102341, N#CC(c1ccc(F)cc1)N1CCN(C(=O)CCl)CC1], for which the “ln(avg k)” value in data set [1] (setting [4]) and in data set [1] (setting [5]) was -14.949 each time. The NUDT7 % labeling in data set [2] was 0%. In addition, the OTUB2 % labeling in data set [3] is on record as 0%.
On to `CC(NC(=O)CCl)c1ccc2c(c1)OCCO2` (centres unmarked) [PCM-0102342, CC(NC(=O)CCl)c1ccc2c(c1)OCCO2], for which the “ln(avg k)” value in data set [1] (setting [4]) and in data set [1] (setting [5]) was -16.412 throughout. Besides, in data set [2], the NUDT7 % labeling was 8%. Further, the OTUB2 % labeling in data set [3] is 57%.
Consider `O=C(CCl)N1CCN(S(=O)(=O)c2ccc(F)c(Cl)c2)CC1` [PCM-0102343, O=C(CCl)N1CCN(S(=O)(=O)c2ccc(F)c(Cl)c2)CC1], for which the “ln(avg k)” value in data set [1] (setting [4]) and in data set [1] (setting [5]) was -15.080 in each case. Moreover, in data set [2], the NUDT7 % labeling is reported as 12%. Moreover, the OTUB2 % labeling in data set [3] is 0%.
For the compound `CN(Cc1ccc(Cl)cc1)C(=O)CCl` [PCM-0102344, CN(Cc1ccc(Cl)cc1)C(=O)CCl], the “ln(avg k)” value in data set [1] (setting [4]) and in data set [1] (setting [5]) was -15.486 each time. Besides, the NUDT7 % labeling in data set [2] was 34%. The OTUB2 % labeling in data set [3] is reported as 0%.
Regarding `CN(C)C(=O)c1cccc(NC(=O)CCl)c1` [PCM-0102345, CN(C)C(=O)c1cccc(NC(=O)CCl)c1], the “ln(avg k)” value in data set [1] (setting [4]) and in data set [1] (setting [5]) was -15.488 each time. Moreover, the NUDT7 % labeling in data set [2] is listed as 10%. Moreover, the OTUB2 % labeling in data set [3] is 0%.
As to `O=C(CCl)N1CCN(CC(=O)N2CCCC2)CC1` [PCM-0102346, O=C(CCl)N1CCN(CC(=O)N2CCCC2)CC1], the “ln(avg k)” value in data set [1] (setting [4]) and in data set [1] (setting [5]) was -16.189 throughout. For the same compound, the NUDT7 % labeling in data set [2] is 0%. Besides, in data set [3], the OTUB2 % labeling is 0%.
For the compound `CC(C)(C)c1cc(NC(=O)CCl)on1` [PCM-0102348, CC(C)(C)c1cc(NC(=O)CCl)on1], the “ln(avg k)” value in data set [1] (setting [4]) and in data set [1] (setting [5]) was -15.607 in each case. In addition, the NUDT7 % labeling in data set [2] is on record as 0%. Further, the OTUB2 % labeling in data set [3] is 0%.
For the compound `CN(Cc1ccc(Cl)c(Cl)c1)C(=O)CCl` [PCM-0102349, CN(Cc1ccc(Cl)c(Cl)c1)C(=O)CCl], the “ln(avg k)” value in data set [1] (setting [4]) and in data set [1] (setting [5]) was -15.496 in each case. Moreover, the NUDT7 % labeling in data set [2] is 59%. In addition, the OTUB2 % labeling in data set [3] is given as 0%.
In the case of `CC(NC(=O)CCl)c1ccc2ccccc2c1` (centres unmarked) [PCM-0102350, CC(NC(=O)CCl)c1ccc2ccccc2c1], the “ln(avg k)” value in data set [1] (setting [4]) and in data set [1] (setting [5]) was -16.423 throughout. For the same compound, in data set [2], the NUDT7 % labeling is given as 31%. In addition, in data set [3], the OTUB2 % labeling is on record as 47%.
